Source: US10239883B2, “4-imidazopyridazin-1-yl-benzamides as BTK inhibitors” (Merck Sharp & Dohme B.V., priority 2011, dated 2019)

What follows are compounds tested against Btk enzyme (His-Btk) (Homo sapiens (Human), UniProt Q06187) (assay: Btk enzyme activity, IMAP fluorescence polarization assay). Settings: 60 min pre-incubation, 5 μM ATP, bin bound in nM.
Chain of Btk enzyme (His-Btk) (Q06187 whole entry): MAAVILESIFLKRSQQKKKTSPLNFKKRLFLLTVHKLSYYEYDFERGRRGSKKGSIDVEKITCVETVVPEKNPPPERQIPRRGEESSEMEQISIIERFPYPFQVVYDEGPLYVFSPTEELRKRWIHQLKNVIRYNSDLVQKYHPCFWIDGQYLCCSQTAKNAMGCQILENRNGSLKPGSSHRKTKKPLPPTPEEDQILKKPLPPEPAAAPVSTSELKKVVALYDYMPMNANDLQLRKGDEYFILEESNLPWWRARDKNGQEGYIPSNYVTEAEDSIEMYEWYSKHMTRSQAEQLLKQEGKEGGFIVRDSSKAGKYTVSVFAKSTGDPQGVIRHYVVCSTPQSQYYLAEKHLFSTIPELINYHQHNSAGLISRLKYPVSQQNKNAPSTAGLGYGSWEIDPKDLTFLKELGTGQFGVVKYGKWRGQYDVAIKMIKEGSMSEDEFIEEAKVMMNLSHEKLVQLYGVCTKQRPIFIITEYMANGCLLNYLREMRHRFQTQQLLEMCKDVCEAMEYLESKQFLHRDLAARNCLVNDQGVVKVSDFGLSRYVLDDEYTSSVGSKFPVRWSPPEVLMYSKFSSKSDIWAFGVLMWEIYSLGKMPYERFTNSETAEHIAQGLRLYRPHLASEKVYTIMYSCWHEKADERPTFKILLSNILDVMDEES

EC50 Btk activity values [nM]	SMILES
<100	COC/C=C/C(=O)NCc1nc(-c2ccc(C(=O)Nc3ccccn3)cc2)c2c(N)nccn12 [Example 95, (E)-4-(8-amino-3-((4-methoxybut-2-enamido)methyl)imidazo[1,5-a]pyrazin-1-yl)-N-(pyridin-2-yl)benzamide]
<100	COC/C=C/C(=O)N1CCCCCC1c1nc(-c2ccc(C(=O)Nc3ccccn3)cc2)c2c(N)nccn12 (stereo not drawn) [Example 97, (E)-4-(8-amino-3-(1-(4-methoxybut-2-enoyl)azepan-2-yl)imidazo[1,5-a]pyrazin-1-yl)-N-(pyridin-2-yl)benzamide]
<100	COC/C=C/C(=O)N1CCC[C@H]1c1nc(-c2ccc(C(=O)Nc3cc(C#N)ccn3)cc2)c2c(N)nccn12 [Example 98, (S,E)-4-(8-amino-3-(1-(4-methoxybut-2-enoyl)pyrrolidin-2-yl)imidazo[1,5-a]pyrazin-1-yl)-N-(4-cyanopyridin-2-yl)benzamide]
<100	C[C@H](NC(=O)c1ccnc(Cl)n1)c1nc(-c2ccc(C(=O)Nc3ccccn3)cc2)c2c(N)nccn12 [Example 105, (S)-N-(1-(8-amino-1-(4-(pyridin-2-ylcarbamoyl)phenyl)imidazo[1,5-a]pyrazin-3-yl)ethyl)-2-chloropyrimidine-4-carboxamide]
<100	CC#CC(=O)N1CCC[C@H]1c1nc(-c2ccc(C(=O)Nc3cc(F)ccn3)cc2)c2c(N)nccn12 [Example 106, (S)-4-(8-amino-3-(1-but-2-ynoylpyrrolidin-2-yl)imidazo[1,5-a]pyrazin-1-yl)-N-(4-fluoropyridin-2-yl)benzamide]
<100	CC#CC(=O)NCc1nc(-c2ccc(C(=O)Nc3ccccn3)cc2)c2c(N)nccn12 [Example 112, 4-(8-amino-3-(but-2-ynamidomethyl)imidazo[1,5-a]pyrazin-1-yl)-N-(pyridin-2-yl)benzamide]
<100	CC#CC(=O)N(C)[C@@H](C)c1nc(-c2ccc(C(=O)Nc3cc(CCC)ccn3)cc2)c2c(N)nccn12 [Example 113, (S)-4-(8-amino-3-(1-(N-methylbut-2-ynamido)ethyl)imidazo[1,5-a]pyrazin-1-yl)-N-(4-propylpyridin-2-yl)benzamide]
<100	CCCc1ccnc(NC(=O)c2ccc(-c3nc([C@@H]4CCCCN4C(=O)/C=C/COC)n4ccnc(N)c34)cc2F)c1 [Example 114, (S,E)-4-(8-amino-3-(1-(4-methoxybut-2-enoyl)piperidin-2-yl)imidazo[1,5-a]pyrazin-1-yl)-2-fluoro-N-(4-propylpyridin-2-yl)benzamide]

Continued, compound first:

SMILES	EC50 Btk activity values [nM]
Nc1nccn2c([C@@H]3CCCN3C(=O)c3ccnc(Cl)n3)nc(-c3ccc(C(=O)Nc4ccccn4)c(F)c3)c12 [Example 84, (S)-4-(8-amino-3-(1-(2-chloropyrimidine-4-carbonyl)pyrrolidin-2-yl)imidazo[1,5-a]pyrazin-1-yl)-2-fluoro-N-(pyridin-2-yl)benzamide]	<100
CC#CC(=O)N1CCCC[C@H]1c1nc(-c2ccc(C(=O)Nc3nccc(C)n3)cc2)c2c(N)nccn12 [Example 89, (S)-4-(8-amino-3-(1-but-2-ynoylpiperidin-2-yl)imidazo[1,5-a]pyrazin-1-yl)-N-(4-methylpyrimidin-2-yl)benzamide]	<100
CC#CC(=O)N1CCC[C@H]1c1nc(-c2ccc(C(=O)Nc3cc(N4CCCC4)ccn3)cc2)c2c(N)nccn12 [Example 96, (S)-4-(8-amino-3-(1-but-2-ynoylpyrrolidin-2-yl)imidazo[1,5-a]pyrazin-1-yl)-N-(4-(pyrrolidin-1-yl)pyridin-2-yl)benzamide]	<100
CC#CC(=O)N1CCC[C@H]1c1nc(-c2ccc(C(=O)Nc3ccccn3)c(OC)c2)c2c(N)nccn12 [Example 99, (S)-4-(8-amino-3-(1-but-2-ynoylpyrrolidin-2-yl)imidazo[1,5-a]pyrazin-1-yl)-2-methoxy-N-(pyridin-2-yl)benzamide]	<100
COC/C=C/C(=O)N1CCC[C@H]1c1nc(-c2ccc(C(=O)Nc3ccccn3)c(OC)c2)c2c(N)nccn12 [Example 103, (S,E)-4-(8-amino-3-(1-(4-methoxybut-2-enoyl)pyrrolidin-2-yl)imidazo[1,5-a]pyrazin-1-yl)-2-methoxy-N-(pyridin-2-yl)benzamide]	<100
Nc1nccn2c([C@@H]3CCCN3C(=O)c3ccnc(Cl)n3)nc(-c3ccc(C(=O)Nc4cc(C(F)(F)F)ccn4)cc3)c12 [Example 119, (S)-4-(8-amino-3-(1-(2-chloropyrimidine-4-carbonyl)pyrrolidin-2-yl)imidazo[1,5-a]pyrazin-1-yl)-N-(4-(trifluoromethyl)pyridin-2-yl)benzamide]	<100

Same assay, conditions: 60 min pre-incubation, 5 μM ATP, bin bound in μM

EC50 Btk activity values [nM]	SMILES
<1000	CCCc1ccnc(NC(=O)c2ccc(-c3nc([C@@H]4CCCN4C(=O)/C=C/COC)n4ccnc(N)c34)c(C)c2)c1 [Example 87, 4-(8-amino-3-((S)-1-((E)-4-methoxybut-2-enoyl)pyrrolidin-2-yl)imidazo[1,5-a]pyrazin-1-yl)-3-methyl-N-(4-propylpyridin-2-yl)benzamide]
<1000	COC/C=C/C(=O)N1CCCC[C@H]1c1nc(-c2ccc(C(=O)Nc3nccc(C)n3)cc2)c2c(N)nccn12 [Example 88, (S,E)-4-(8-amino-3-(1-(4-methoxybut-2-enoyl)piperidin-2-yl)imidazo[1,5-a]pyrazin-1-yl)-N-(4-methylpyrimidin-2-yl)benzamide]

Second part, the compound before the results:

SMILES	EC50 Btk activity values [nM]
COC/C=C/C(=O)N1CCCC[C@H]1c1nc(-c2ccc(C(=O)Nc3ccccn3)cc2C)c2c(N)nccn12 [Example 85, 4-(8-amino-3-((S)-1-((E)-4-methoxybut-2-enoyl)piperidin-2-yl)imidazo[1,5-a]pyrazin-1-yl)-3-methyl-N-(pyridin-2-yl)benzamide]	<1000
COC/C=C/C(=O)N1CCCC[C@H]1c1nc(-c2ccc(C(=O)Nc3ccncn3)cc2)c2c(N)nccn12 [Example 86, (S,E)-4-(8-amino-3-(1-(4-methoxybut-2-enoyl)piperidin-2-yl)imidazo[1,5-a]pyrazin-1-yl)-N-(pyrimidin-4-yl)benzamide]	<1000
Nc1nccn2c([C@@H]3CCCCN3C(=O)c3ccnc(Cl)n3)nc(-c3ccc(C(=O)Nc4ncccn4)cc3)c12 [Example 90, (S)-4-(8-amino-3-(1-(2-chloropyrimidine-4-carbonyl)piperidin-2-yl)imidazo[1,5-a]pyrazin-1-yl)-N-(pyrimidin-2-yl)benzamide]	<1000
C=C(C(=O)N1CCC[C@H]1c1nc(-c2ccc(C(=O)Nc3ccccn3)cc2)c2c(N)nccn12)C(F)(F)F [Example 92, (S)-4-(8-amino-3-(1-(2-(trifluoromethyl)acryloyl)pyrrolidin-2-yl)imidazo[1,5-a]pyrazin-1-yl)-N-(pyridin-2-yl)benzamide]	<1000
N#CCN1CCC[C@H]1c1nc(-c2ccc(C(=O)Nc3ccccn3)cc2)c2c(N)nccn12 [Example 94, (S)-4-(8-amino-3-(1-(cyanomethyl)pyrrolidin-2-yl)imidazo[1,5-a]pyrazin-1-yl)-N-(pyridin-2-yl)benzamide]	<1000
Nc1nccn2c([C@@H]3CCCN3C(=O)/C=C/c3ccccc3)nc(-c3ccc(C(=O)Nc4ccccn4)cc3)c12 [Example 104, (S,E)-4-(8-amino-3-(1-cinnamoylpyrrolidin-2-yl)imidazo[1,5-a]pyrazin-1-yl)-N-(pyridin-2-yl)benzamide]	<1000

These compounds were tested against Lck enzyme (Homo sapiens (Human), UniProt P06239) (assay: Lck enzyme activity, IMAP fluorescence polarization assay). Settings: 60 min pre-incubation, 6 μM ATP, bin bound in μM.
Chain of Lck enzyme (P06239 whole entry): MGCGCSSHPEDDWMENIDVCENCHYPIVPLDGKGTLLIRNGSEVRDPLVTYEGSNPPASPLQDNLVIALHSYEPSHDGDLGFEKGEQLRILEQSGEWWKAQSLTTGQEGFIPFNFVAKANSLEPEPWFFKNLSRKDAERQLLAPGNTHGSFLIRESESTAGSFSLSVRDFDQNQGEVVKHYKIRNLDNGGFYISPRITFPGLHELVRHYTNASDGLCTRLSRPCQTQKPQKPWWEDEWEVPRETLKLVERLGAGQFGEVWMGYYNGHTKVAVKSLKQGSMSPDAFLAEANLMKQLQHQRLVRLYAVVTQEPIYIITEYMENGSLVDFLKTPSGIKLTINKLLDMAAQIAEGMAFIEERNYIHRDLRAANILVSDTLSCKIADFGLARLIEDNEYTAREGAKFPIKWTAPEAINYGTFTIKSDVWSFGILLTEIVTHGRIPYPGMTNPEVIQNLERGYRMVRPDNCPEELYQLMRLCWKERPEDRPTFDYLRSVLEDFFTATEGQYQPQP

EC50 Lck activity values [µM]	SMILES
<1	C=CC(=O)N1CCC[C@H]1c1nc(-c2ccc(C(=O)Nc3cc(C(F)(F)F)ccn3)cc2)c2c(N)nccn12 [Example 62, (S)-4-(3-(1-acryloylpyrrolidin-2-yl)-8-aminoimidazo[1,5-a]pyrazin-1-yl)-N-(4-(trifluoromethyl)pyridin-2-yl)benzamide]
<1	CC#CC(=O)N1CCCC[C@H]1c1nc(-c2ccc(C(=O)Nc3cc(CCC)ccn3)cc2)c2c(N)nccn12 [Example 64, (S)-4-(8-amino-3-(1-but-2-ynoylpiperidin-2-yl)imidazo[1,5-a]pyrazin-1-yl)-N-(4-propylpyridin-2-yl)benzamide]
<1	CCCc1ccnc(NC(=O)c2ccc(-c3nc([C@H](C)N(C)C(=O)/C=C/CN(C)C)n4ccnc(N)c34)cc2)c1 [Example 76, (S,E)-4-(8-amino-3-(1-(4-(dimethylamino)-N-methylbut-2-enamido)ethyl)imidazo[1,5-a]pyrazin-1-yl)-N-(4-propylpyridin-2-yl)benzamide]
<1	C=CC(=O)N1CCC[C@H]1c1nc(-c2ccc(C(=O)Nc3cc(C#N)ccn3)cc2)c2c(N)nccn12 [Example 122, (S)-4-(3-(1-acryloylpyrrolidin-2-yl)-8-aminoimidazo[1,5-a]pyrazin-1-yl)-N-(4-cyanopyridin-2-yl)benzamide]
<1	C=CC(=O)N1CCC[C@H]1c1nc(-c2ccc(C(=O)Nc3cc(C)ccn3)cc2)c2c(N)nccn12 [Example 124, (S)-4-(3-(1-acryloylpyrrolidin-2-yl)-8-aminoimidazo[1,5-a]pyrazin-1-yl)-N-(4-methylpyridin-2-yl)benzamide]

Continued, compound first:

SMILES	EC50 Lck activity values [µM]
Nc1nccn2c([C@@H]3CCCN3C(=O)/C=C/c3ccccc3)nc(-c3ccc(C(=O)Nc4ccccn4)cc3)c12 [Example 104, (S,E)-4-(8-amino-3-(1-cinnamoylpyrrolidin-2-yl)imidazo[1,5-a]pyrazin-1-yl)-N-(pyridin-2-yl)benzamide]	<1
CC#CC(=O)N1CCC[C@H]1c1nc(-c2ccc(C(=O)Nc3cc(-c4ccccc4)ccn3)cc2)c2c(N)nccn12 [Example 132, (S)-4-(8-amino-3-(1-but-2-ynoylpyrrolidin-2-yl)imidazo[1,5-a]pyrazin-1-yl)-N-(4-phenylpyridin-2-yl)benzamide]	<1

Each compound was assayed against Lyn enzyme (Homo sapiens (Human), UniProt P07948) (assay: Lyn enzyme activity, IMAP fluorescence polarization assay). Settings: IMAP; 60 min pre-incubation; 2 μM ATP; bin bound in μM.
Chain of Lyn enzyme (P07948 whole entry): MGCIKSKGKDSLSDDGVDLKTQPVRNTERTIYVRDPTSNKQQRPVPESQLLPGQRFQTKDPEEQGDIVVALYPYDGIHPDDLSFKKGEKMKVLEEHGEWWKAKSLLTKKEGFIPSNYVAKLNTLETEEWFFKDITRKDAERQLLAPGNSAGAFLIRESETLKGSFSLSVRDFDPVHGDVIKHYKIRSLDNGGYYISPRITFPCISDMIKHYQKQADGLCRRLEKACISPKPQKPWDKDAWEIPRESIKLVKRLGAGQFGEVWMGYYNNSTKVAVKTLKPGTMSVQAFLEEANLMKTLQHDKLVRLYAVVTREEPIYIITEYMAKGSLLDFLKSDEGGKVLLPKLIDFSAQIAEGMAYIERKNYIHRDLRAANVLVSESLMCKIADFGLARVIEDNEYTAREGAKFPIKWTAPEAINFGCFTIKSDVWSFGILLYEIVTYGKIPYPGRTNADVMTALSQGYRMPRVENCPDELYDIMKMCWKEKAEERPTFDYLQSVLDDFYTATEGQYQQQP

EC50 Lyn activity values [µM]	SMILES
<1	C=CC(=O)N1CCC[C@H]1c1nc(-c2ccc(C(=O)Nc3cc(C)ccn3)cc2)c2c(N)nccn12 [Example 124, (S)-4-(3-(1-acryloylpyrrolidin-2-yl)-8-aminoimidazo[1,5-a]pyrazin-1-yl)-N-(4-methylpyridin-2-yl)benzamide]
